Legend:
[1] = tested on: non-small cell lung cancer (NSCLC); assay: Report on 2 patients with non-small cell lung cancer (NSCLC) who received EKB-569 after gefitinib and recurrence; type: in vivo, human; conditions: two patients (Exon 19 del E746-A750, 25 mg/day for 9 months; Exon 21 L858R, 35 mg/day for 4 months) after treatment with gefitinib and recurrence of NSCLC
Description: Report on 2 Patients with Non-Small Cell Lung Cancer (NSCLC) Who Received EKB-569.
A person with a smoking history BI 720 […] having adenocarcinoma and cT0NOM1 (multiple pulmonary metastasis). Exon 19 deletion E746-A750 is identified. Herception test score was 0+ and EGFR score 2+. The patient was given 25 mg/day EKB-569 for 9 months.
A person with a smoking history of BI 30 (10×3 years) having adenocarcinoma performance status 1, cT0N3M1 (pulmonary, brain and bone). Exon 21 point mutation L858R. HercepTest score +, EGFR score 3+, EKB-569 35 mg/day for 4 months.
Phase 1 dose-escalation study of EKB-569 was completed in Japanese patients with advanced-stage malignancies known to overexpress EGFR.

[2] = tested on: NSCLC; conditions: in some cases; re-treatment when NSCLC recurs in patients treated with gefitinib; cited from earlier work

| SMILES | clinical effectiveness in NSCLC patients [1] | effectiveness of re-treatment in recurrent NSCLC [2] |
| --- | --- | --- |
| CCOc1cc2ncc(C#N)c(Nc3ccc(F)c(Cl)c3)c2cc1NC(=O)C=CCN(C)C [EKB-569, 4-dimethylamino-but-2-enoic acid [4-(3-chloro-4-fluoro-phenylamino)-3-cyano-7-ethoxy-quinolin-6-yl]-amide] | effective | – |
| COc1cc2ncnc(Nc3ccc(F)c(Cl)c3)c2cc1OCCCN1CCOCC1 [gefitinib] | – | effective |

Source: US20060235046A1, “Use of an epidermal growth factor receptor kinase inhibitor (EGFR) in gefitinib resistant patients” (Wyeth, priority 2005, published 2006)
